≈ marks a conversion by molar mass, not a printed value.
Tests used:
Pseudomonas aeruginosa [1] = test: Antibacterial activity against Pseudomonas aeruginosa ATCC 27853 after 24 hrs by microdilution method; assay type: functional; details: ATCC 27853, 24 h
Bacillus cereus [2] = test: Bactericidal activity against Bacillus cereus incubated for 24 hrs followed by serial sub-cultivation and measured after 24 hrs by microdilution method; assay type: functional
Escherichia coli [3] = test: Bactericidal activity against Escherichia coli ATCC 35210 incubated for 24 hrs followed by serial sub-cultivation and measured after 24 hrs by microdilution method; assay type: functional
Penicillium ochrochloron [4] = test: Antifungal activity against Penicillium ochrochloron ATCC 9112 after 72 hrs by serial dilution method; assay type: functional; details: ATCC 9112, 72 h
Aspergillus niger [5] = test: Fungicidal activity against Aspergillus niger ATCC 6275 incubated for 72 hrs followed by serial sub-cultivation for 72 hrs and measured after 72 hrs by serial dilution method; assay type: functional
Talaromyces funiculosus [6] = test: Fungicidal activity against Penicillium funiculosum ATCC 36839 incubated for 72 hrs followed by serial sub-cultivation for 72 hrs and measured after 72 hrs by serial dilution method; assay type: functional
Trichoderma viride [7] = test: Antifungal activity against Trichoderma viride IAM 5061 after 72 hrs by serial dilution method; assay type: functional; details: IAM 5061, 72 h
Salmonella typhimurium [8] = test: Antibacterial activity against Salmonella typhimurium ATCC 13311 after 24 hrs by microdilution method; assay type: functional, Salmonella enterica subsp. enterica serovar Typhimurium; details: Salmonella enterica, ATCC 13311, 24 h
Listeria monocytogenes [9] = test: Antibacterial activity against Listeria monocytogenes NCTC 7973 after 24 hrs by microdilution method; assay type: functional; details: NCTC 7973, 24 h
Talaromyces funiculosus [10] = test: Antifungal activity against Penicillium funiculosum ATCC 36839 after 72 hrs by serial dilution method; assay type: functional; details: ATCC 36839, 72 h
Staphylococcus aureus [11] = test: Antibacterial activity against Staphylococcus aureus ATCC 6538 after 24 hrs by microdilution method; assay type: functional; details: ATCC 6538, 24 h
Listeria monocytogenes [12] = test: Bactericidal activity against Listeria monocytogenes NCTC 7973 incubated for 24 hrs followed by serial sub-cultivation and measured after 24 hrs by microdilution method; assay type: functional
Bacillus cereus [13] = test: Antibacterial activity against Bacillus cereus after 24 hrs by microdilution method; assay type: functional
Staphylococcus aureus [14] = test: Bactericidal activity against Staphylococcus aureus ATCC 6538 incubated for 24 hrs followed by serial sub-cultivation and measured after 24 hrs by microdilution method; assay type: functional
Aspergillus ochraceus [15] = test: Antifungal activity against Aspergillus ochraceus ATCC 12066 after 72 hrs by serial dilution method; assay type: functional; details: ATCC 12066, 72 h
Aspergillus fumigatus [16] = test: Antifungal activity against Aspergillus fumigatus after 72 hrs by serial dilution method; assay type: functional
Salmonella typhimurium [17] = test: Bactericidal activity against Salmonella typhimurium ATCC 13311 incubated for 24 hrs followed by serial sub-cultivation and measured after 24 hrs by microdilution method; assay type: functional, Salmonella enterica subsp. enterica serovar Typhimurium
Candida albicans [18] = test: Fungicidal activity against Candida albicans incubated for 72 hrs followed by serial sub-cultivation for 72 hrs and measured after 72 hrs by serial dilution method; assay type: functional
Aspergillus fumigatus [19] = test: Fungicidal activity against Aspergillus fumigatus incubated for 72 hrs followed by serial sub-cultivation for 72 hrs and measured after 72 hrs by serial dilution method; assay type: functional
Pseudomonas aeruginosa [20] = test: Bactericidal activity against Pseudomonas aeruginosa ATCC 27853 incubated for 24 hrs followed by serial sub-cultivation and measured after 24 hrs by microdilution method; assay type: functional
Aspergillus versicolor [21] = test: Fungicidal activity against Aspergillus versicolor ATCC 11730 incubated for 72 hrs followed by serial sub-cultivation for 72 hrs and measured after 72 hrs by serial dilution method; assay type: functional
Trichoderma viride [22] = test: Fungicidal activity against Trichoderma viride IAM 5061 incubated for 72 hrs followed by serial sub-cultivation for 72 hrs and measured after 72 hrs by serial dilution method; assay type: functional
Penicillium ochrochloron [23] = test: Fungicidal activity against Penicillium ochrochloron ATCC 9112 incubated for 72 hrs followed by serial sub-cultivation for 72 hrs and measured after 72 hrs by serial dilution method; assay type: functional
Aspergillus niger [24] = test: Antifungal activity against Aspergillus niger ATCC 6275 after 72 hrs by serial dilution method; assay type: functional; details: ATCC 6275, 72 h
Escherichia coli [25] = test: Antibacterial activity against Escherichia coli ATCC 35210 after 24 hrs by microdilution method; assay type: functional; details: ATCC 35210, 24 h
Micrococcus flavus [26] = test: Bactericidal activity against Micrococcus flavus ATCC 10240 incubated for 24 hrs followed by serial sub-cultivation and measured after 24 hrs by microdilution method; assay type: functional
Micrococcus flavus [27] = test: Antibacterial activity against Micrococcus flavus ATCC 10240 after 24 hrs by microdilution method; assay type: functional; details: ATCC 10240, 24 h
Enterobacter cloacae [28] = test: Bactericidal activity against Enterobacter cloacae incubated for 24 hrs followed by serial sub-cultivation and measured after 24 hrs by microdilution method; assay type: functional
Aspergillus versicolor [29] = test: Antifungal activity against Aspergillus versicolor ATCC 11730 after 72 hrs by serial dilution method; assay type: functional; details: ATCC 11730, 72 h
Candida albicans [30] = test: Antifungal activity against Candida albicans after 72 hrs by serial dilution method; assay type: functional
Enterobacter cloacae [31] = test: Antibacterial activity against Enterobacter cloacae after 24 hrs by microdilution method; assay type: functional
Aspergillus ochraceus [32] = test: Fungicidal activity against Aspergillus ochraceus ATCC 12066 incubated for 72 hrs followed by serial sub-cultivation for 72 hrs and measured after 72 hrs by serial dilution method; assay type: functional

Compound | MIC (Pseudomonas aeruginosa [1]) [µM] | MBC99.5 (Bacillus cereus [2]) [×10⁻² umol/ml] | MBC99.5 (Escherichia coli [3]) [×10⁻² umol/ml] | MIC (Penicillium ochrochloron [4]) [µM] | MFC99.5 (Aspergillus niger [5]) [×10⁻² umol/ml] | MFC99.5 (Talaromyces funiculosus [6]) [×10⁻² umol/ml] | MIC (Trichoderma viride [7]) [µM] | MIC (Salmonella typhimurium [8]) [µM] | MIC (Listeria monocytogenes [9]) [µM] | MIC (Talaromyces funiculosus [10]) [µM] | MIC (Staphylococcus aureus [11]) [µM] | MBC99.5 (Listeria monocytogenes [12]) [×10⁻² umol/ml] | MIC (Bacillus cereus [13]) [µM] | MBC99.5 (Staphylococcus aureus [14]) [×10⁻² umol/ml] | MIC (Aspergillus ochraceus [15]) [µM] | MIC (Aspergillus fumigatus [16]) [µM] | MBC99.5 (Salmonella typhimurium [17]) [×10⁻² umol/ml] | MFC99.5 (Candida albicans [18]) [×10⁻² umol/ml] | MFC99.5 (Aspergillus fumigatus [19]) [×10⁻² umol/ml] | MBC99.5 (Pseudomonas aeruginosa [20]) [×10⁻² umol/ml] | also measured
O=C(NN1C(=O)CSC1c1ccccc1Cl)c1nsc2ccccc12 (stereo unspecified) | 282 (≈ 110 µg/mL) | 38.4 | 38.4 | 384 (≈ 150 µg/mL) | 20.5 | 38.4 | 102 (≈ 39.8 µg/mL) | 205 (≈ 79.9 µg/mL) | 589 (≈ 230 µg/mL) | 205 (≈ 79.9 µg/mL) | 102 (≈ 39.8 µg/mL) | 76.8 | 154 (≈ 60 µg/mL) | 38.4 | 102 (≈ 39.8 µg/mL) | 102 (≈ 40 µg/mL) | 38.4 | 76.8 | 20.5 | 38.4 | MFC99.5 (Aspergillus versicolor [21]): 5.1 ×10⁻² umol/ml; MFC99.5 (Trichoderma viride [22]): 20.5 ×10⁻² umol/ml; MFC99.5 (Penicillium ochrochloron [23]): 76.8 ×10⁻² umol/ml; MIC (Aspergillus niger [24]): 102 µM (≈ 39.8 µg/mL); MIC (Escherichia coli [25]): 282 µM (≈ 110 µg/mL); MBC99.5 (Micrococcus flavus [26]): 76.8 ×10⁻² umol/ml; MIC (Micrococcus flavus [27]): 384 µM (≈ 150 µg/mL); MBC99.5 (Enterobacter cloacae [28]): 38.4 ×10⁻² umol/ml; MIC (Aspergillus versicolor [29]): 25.6 µM (≈ 9.98 µg/mL); MIC (Candida albicans [30]): 384 µM (≈ 150 µg/mL); MIC (Enterobacter cloacae [31]): 205 µM (≈ 79.9 µg/mL); MFC99.5 (Aspergillus ochraceus [32]): 20.5 ×10⁻² umol/ml
O=C(NN1C(=O)CSC1c1cccc(Cl)c1)c1nsc2ccccc12 (stereo unspecified) | 205 (≈ 79.9 µg/mL) | 38.4 | 20.5 | 208 (≈ 81.1 µg/mL) | 10.2 | 20.5 | 51 (≈ 19.9 µg/mL) | 205 (≈ 79.9 µg/mL) | 20.5 (≈ 7.99 µg/mL) | 102 (≈ 39.8 µg/mL) | 102 (≈ 39.8 µg/mL) | 3.84 | 102 (≈ 39.8 µg/mL) | 20.5 | 102 (≈ 39.8 µg/mL) | 384 (≈ 150 µg/mL) | 38.4 | 20.5 | 76.8 | 38.4 | MFC99.5 (Aspergillus versicolor [21]): 10.2 ×10⁻² umol/ml; MFC99.5 (Trichoderma viride [22]): 10.2 ×10⁻² umol/ml; MFC99.5 (Penicillium ochrochloron [23]): 38.4 ×10⁻² umol/ml; MIC (Aspergillus niger [24]): 77 µM (≈ 30 µg/mL); MIC (Escherichia coli [25]): 102 µM (≈ 39.8 µg/mL); MBC99.5 (Micrococcus flavus [26]): 38.4 ×10⁻² umol/ml; MIC (Micrococcus flavus [27]): 205 µM (≈ 79.9 µg/mL); MBC99.5 (Enterobacter cloacae [28]): 38.4 ×10⁻² umol/ml; MIC (Aspergillus versicolor [29]): 51 µM (≈ 19.9 µg/mL); MIC (Candida albicans [30]): 102 µM (≈ 39.8 µg/mL); MIC (Enterobacter cloacae [31]): 205 µM (≈ 79.9 µg/mL); MFC99.5 (Aspergillus ochraceus [32]): 20.5 ×10⁻² umol/ml
O=C(NN1C(=O)CSC1c1cccc(F)c1)c1nsc2ccccc12 (stereo unspecified) | 214 (≈ 79.9 µg/mL) | 40.2 | 21.4 | 107 (≈ 40 µg/mL) | 21.4 | 21.4 | 54 (≈ 20.2 µg/mL) | 214 (≈ 79.9 µg/mL) | 214 (≈ 79.9 µg/mL) | 107 (≈ 40 µg/mL) | 107 (≈ 40 µg/mL) | 40.2 | 107 (≈ 40 µg/mL) | 21.4 | 292 (≈ 109 µg/mL) | 54 (≈ 20.2 µg/mL) | 40.2 | 21.4 | 10.7 | 80.4 | MFC99.5 (Aspergillus versicolor [21]): 10.7 ×10⁻² umol/ml; MFC99.5 (Trichoderma viride [22]): 10.7 ×10⁻² umol/ml; MFC99.5 (Penicillium ochrochloron [23]): 21.4 ×10⁻² umol/ml; MIC (Aspergillus niger [24]): 107 µM (≈ 40 µg/mL); MIC (Escherichia coli [25]): 160 µM (≈ 59.7 µg/mL); MBC99.5 (Micrococcus flavus [26]): 40.2 ×10⁻² umol/ml; MIC (Micrococcus flavus [27]): 214 µM (≈ 79.9 µg/mL); MBC99.5 (Enterobacter cloacae [28]): 21.4 ×10⁻² umol/ml; MIC (Aspergillus versicolor [29]): 54 µM (≈ 20.2 µg/mL); MIC (Candida albicans [30]): 107 µM (≈ 40 µg/mL); MIC (Enterobacter cloacae [31]): 214 µM (≈ 79.9 µg/mL); MFC99.5 (Aspergillus ochraceus [32]): 40.2 ×10⁻² umol/ml

Reference: ChEMBL document CHEMBL4257449, “New N-(2-phenyl-4-oxo-1,3-thiazolidin-3-yl)-1,2-benzothiazole-3-carboxamides and acetamides as antimicrobial agents” (2017)
